Laboratory results from ChEMBL document CHEMBL1201862, “PubChem BioAssay data set” (2004).
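96-well plates; 48 h exposure; 5 concentrations. Endpoints by linear interpolation between flanking doses. Not reached: highest tested concentration assigned. Here, GI50 denotes the concentration required for 50% inhibition of growth.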 The source made the active and inactive calls. No stated cut-off is given here; in the data, active = GI50 up to about 1.1 µM and inactive = higher.

Columns and labels:
Assay in all cases: NCI anticancer screen, dose series, 48 h
786-0 = test system: 786-0
A498 = test system: A498
A549 = test system: A549
ACHN = test system: ACHN
CAKI-1 = test system: CAKI-1
CCRF-CEM = test system: CCRF-CEM
COLO 205 = test system: COLO 205
DLD-1 = test system: DLD-1
DMS-114 = test system: DMS-114
DMS-273 = test system: DMS-273
EKVX = test system: EKVX
HCC 2998 = test system: HCC 2998
HCT-116 = test system: HCT-116
HCT-15 = test system: HCT-15
HL-60 = test system: HL-60
HOP-18 = test system: HOP-18
HOP-62 = test system: HOP-62
HT-29 = test system: HT-29
IGROV-1 = test system: IGROV-1
K562 = test system: K562
KM-20L2 = test system: KM-20L2
KM12 = test system: KM12
LOX IMVI = test system: LOX IMVI
LXFL 529 = test system: LXFL 529
M14 = test system: M14
M19-MEL = test system: M19-MEL
MOLT-4 = test system: MOLT-4
Malme-3M = test system: Malme-3M
NCI-H226 = test system: NCI-H226
NCI-H23 = test system: NCI-H23
NCI-H460 = test system: NCI-H460
NCI-H522 = test system: NCI-H522
OVCAR-3 = test system: OVCAR-3
OVCAR-4 = test system: OVCAR-4
OVCAR-5 = test system: OVCAR-5
OVCAR-8 = test system: OVCAR-8
RPMI-8226 = test system: RPMI-8226
RXF 393 = test system: RXF 393
SF-268 = test system: SF-268
SF-295 = test system: SF-295
SF-539 = test system: SF-539
SK-MEL-28 = test system: SK-MEL-28
SK-MEL-2 = test system: SK-MEL-2
SK-MEL-5 = test system: SK-MEL-5
SK-OV-3 = test system: SK-OV-3
SN12C = test system: SN12C
SNB-19 = test system: SNB-19
SNB-75 = test system: SNB-75
SNB-78 = test system: SNB-78
SW-620 = test system: SW-620
TK-10 = test system: TK-10
U-251 = test system: U-251
UACC-257 = test system: UACC-257
UACC-62 = test system: UACC-62
UO-31 = test system: UO-31

With `CC(C)NC1CCCCC2c3cc(F)ccc3[C@]12O` (stereo not given in full) the GI50 (786-0) was > 100 µM (inactive), the GI50 (A498) was > 100 µM (inactive) and the GI50 (A549) was > 100 µM (inactive). The GI50 (ACHN) was > 100 µM (inactive), the GI50 (CAKI-1) was > 100 µM (inactive) and the GI50 (CCRF-CEM) was > 100 µM (inactive). The GI50 (COLO 205) was > 100 µM (inactive), the GI50 (DLD-1) was > 100 µM (inactive) and the GI50 (DMS-114) was > 100 µM (inactive). The GI50 (DMS-273) was > 100 µM (inactive), the GI50 (EKVX) was > 100 µM (inactive) and the GI50 (HCC 2998) was > 100 µM (inactive). The GI50 (HCT-116) was > 100 µM (inactive), the GI50 (HCT-15) was over 100 µM and the GI50 (HL-60) was > 100 µM (inactive). For the same compound, the GI50 (HOP-18) was > 100 µM (inactive), the GI50 (HOP-62) was > 100 µM (inactive) and the GI50 (HT-29) was > 100 µM (inactive). The GI50 (IGROV-1) was > 100 µM (inactive), the GI50 (K562) was > 100 µM (inactive) and the GI50 (KM-20L2) was > 100 µM (inactive). The GI50 (KM12) was > 100 µM (inactive), the GI50 (LOX IMVI) was > 100 µM (inactive) and the GI50 (LXFL 529) was > 100 µM (inactive). The GI50 (M14) was > 100 µM (inactive), the GI50 (M19-MEL) was > 100 µM (inactive) and the GI50 (MOLT-4) was > 100 µM (inactive). For the same compound, the GI50 (Malme-3M) was > 100 µM (inactive), the GI50 (NCI-H226) was > 100 µM (inactive) and the GI50 (NCI-H23) was > 100 µM (inactive). For the same compound, the GI50 (NCI-H460) was > 100 µM (inactive), the GI50 (NCI-H522) was > 100 µM (inactive) and the GI50 (OVCAR-3) was > 100 µM (inactive). The GI50 (OVCAR-4) was > 100 µM (inactive), the GI50 (OVCAR-5) was > 100 µM (inactive) and the GI50 (OVCAR-8) was > 100 µM (inactive). For the same compound, the GI50 (RPMI-8226) was > 100 µM (inactive), the GI50 (RXF 393) was > 100 µM (inactive) and the GI50 (SF-268) was > 100 µM (inactive). For the same compound, the GI50 (SF-295) was > 100 µM (inactive), the GI50 (SF-539) was > 100 µM (inactive) and the GI50 (SK-MEL-28) was > 100 µM (inactive). For the same compound, the GI50 (SK-MEL-2) was > 100 µM (inactive), the GI50 (SK-MEL-5) was > 100 µM (inactive) and the GI50 (SK-OV-3) was > 100 µM (inactive). The GI50 (SN12C) was > 100 µM (inactive), the GI50 (SNB-19) was > 100 µM (inactive) and the GI50 (SNB-75) was > 100 µM (inactive). The GI50 (SNB-78) was > 100 µM (inactive), the GI50 (SW-620) was > 100 µM (inactive) and the GI50 (TK-10) was > 100 µM (inactive). The GI50 (U-251) was > 100 µM (inactive), the GI50 (UACC-257) was > 100 µM (inactive) and the GI50 (UACC-62) was > 100 µM (inactive). For the same compound, the GI50 (UO-31) was > 100 µM (inactive).
